Data from US8148366B2, “Substituted pyrazolo[3,4-E][diazepin-6-5(H)ones and analogues thereof, their preparation and their use as antibacterial medicaments” (Novexel SA, priority 2008, dated 2012).
In brackets after ≈: the same amount, converted by molar mass.

tested on: Pseudomonas aeruginosa (1771 Wild-type strain); experiment: Activity in vitro, method of dilutions in liquid medium (M.I.C.); type: cell-based; conditions: incubation 24 hours at 37° C., growth inhibition by transillumination
Procedure: Activity in vitro, method of dilutions in liquid medium:
A series of tubes is prepared, into which the same quantity of sterile nutritive medium is distributed, increasing quantities of the product to be studied are distributed into each tube then each tube is seeded with a bacterial strain. After incubation for 24 hours in an oven at 37° C., growth inhibition is assessed by transillumination, which makes it possible to determine the minimum inhibitory concentrations (M.I.C.) expressed in μg/ml.
Tests are thus carried out with the products of Examples 1 to 19 in comparison with the products of Examples 11 of the Application WO 04/052891 and 18 of the Application WO 02/100860.

MIC (μg/mL) 24 h (P, aerug, 1771)	Molecule
0.5 µg/mL (≈ 1.58 µM)	Cn1ncc2c1[C@@H](CN)N1C[C@H]2N(OC(F)(F)C(=O)O)C1=O (relative stereo) [Ex18, trans 8-(amino-methyl)-4,8-dihydro-1-methyl-6-oxo-5-(carboxy-difluoro-methoxy)-4,7-methano-7H-pyrazolo[3,4-e][1,3] diazepin-6(5H)-one]
0.5 µg/mL (≈ 1.51 µM)	N=C(N)n1ncc2c1[C@@H](CN)N1C[C@H]2N(OS(=O)(=O)O)C1=O (relative stereo) [Ex9]
0.5 µg/mL (≈ 1.25 µM)	NC[C@@H]1c2nn(C(=O)N3CCNCC3)cc2[C@H]2CN1C(=O)N2OS(=O)(=O)O (relative stereo) [Ex2, trans 8-(aminomethyl)-2-(4-piperazine-1-carbonyl)-4,8-dihydro-5-(sulphooxy)-4,7-methano-7H-pyrazolo[3,4-e][1,3]diazepin-6(5H)-one]

Molecule	MIC (μg/mL) 24 h (P, aerug, 1771)
trans 8-(aminomethyl)-2-amino-carbamoyl-4,8-dihydro-5-(sulphooxy)-4,7-methano-7H-pyrazolo[3,4-e][1,3]diazepin-6(5H)-one [Ex19]	0.5 µg/mL

same assay, conditions: incubation 24 hours at 37° C., growth inhibition by transillumination, read-out: MIC (μg/mL) 24 h (P, aerug, 1771)

MIC	Molecule
1 µg/mL (≈ 2.67 µM)	N=C(N)NC[C@@H]1c2nn(C(N)=O)cc2[C@H]2CN1C(=O)N2OS(=O)(=O)O (relative stereo) [Ex17, trans 8-(guanidino-methyl)-2-carbamoyl-4,8-dihydro-5-(sulphooxy)-4,7-methano-7H-pyrazolo[3,4-e][1,3]diazepin-6(5H)-one]
0.5 µg/mL (≈ 1.28 µM)	NC[C@@H]1c2nn(CCC(N)C(=O)O)cc2[C@H]2CN1C(=O)N2OS(=O)(=O)O (relative stereo) [Ex12, trans 8-(amino-methyl)-2-(3-amino-3-carboxy-propyl)-4,8-dihydro-5-(sulphooxy)-4,7-methano-7H-pyrazolo[3,4-e][1,3] diazepin-6(5H)-one]
0.25 µg/mL (≈ 0.624 µM)	NC[C@@H]1c2nn(C(=O)C3CCNCC3)cc2[C@H]2CN1C(=O)N2OS(=O)(=O)O (relative stereo) [Ex11, trans-8-(amino-methyl)-4,8-dihydro-2-(piperidine-4-carbonyl)-5-(sulphooxy)-4,7-methano-7H-pyrazolo[3,4-e][1,3]diazepin-6(5H)-one]
16 µg/mL (≈ 39.8 µM)	CCNC(=O)n1cc2c(n1)[C@@H](CNC(=N)N)N1C[C@H]2N(OS(=O)(=O)O)C1=O (relative stereo) [Ex16, trans 8-(guanidino-methyl)-2-ethylcarbamoyl-4,8-dihydro-5-(sulphooxy)-4,7-methano-7H-pyrazolo[3,4-e][1,3] diazepin-6(5H)-one]
1 µg/mL (≈ 3.02 µM)	N=C(N)NC[C@@H]1c2[nH]ncc2[C@H]2CN1C(=O)N2OS(=O)(=O)O (relative stereo) [Ex13, trans 8-(guanidino-methyl)-4,8-dihydro-5-(sulphooxy)-4,7-methano-7H-pyrazolo[3,4-e][1,3]diazepin-6(5H)-one]
> 32 µg/mL	CCNC(=O)n1ncc2c1[C@@H](CNC(=N)N)N1C[C@H]2N(OS(=O)(=O)O)C1=O (relative stereo) [Ex15, trans 8-(guanidino-methyl)-1-ethylcarbamoyl-4,8-dihydro-5-(sulphooxy)-4,7-methano-7H-pyrazolo[3,4-e][1,3]diazepin-6(5H)-one]

Continued, molecule first:

Molecule	MIC
NCCCNC(=O)n1cc2c(n1)[C@@H](CN)N1C[C@H]2N(OS(=O)(=O)O)C1=O (relative stereo) [Ex5, trans 8-(aminomethyl)-2-[(3-amino-propyl)carbamoyl]-4,8-dihydro-5-(sulphooxy)-4,7-methano-7H-pyrazolo[3,4-e][1,3] diazepin-6(5H)-one]	0.5 µg/mL (≈ 1.28 µM)
CC(N)CCNC(=O)n1cc2c(n1)[C@@H](CN)N1C[C@H]2N(OS(=O)(=O)O)C1=O (relative stereo) [Ex6, trans 8-(aminomethyl)-2-[(3-amino-butyl)carbamoyl]-4,8-dihydro-5-(sulphooxy)-4,7-methano-7H-pyrazolo[3,4-e][1,3] diazepin-6(5H)-one]	4 µg/mL (≈ 9.92 µM)
N=C(N)n1cc2c(n1)[C@@H](CN)N1C[C@H]2N(OS(=O)(=O)O)C1=O (relative stereo) [Ex10, trans 8-(aminomethyl)-2-(carbamimidoyl)-4,8-dihydro-5-(sulphooxy)-4,7-methano-7H-pyrazolo[3,4-e] [1,3]diazepin-6(5H)-one]	0.5 µg/mL (≈ 1.51 µM)
CN(C)CCNC(=O)n1cc2c(n1)[C@@H](CN)N1C[C@H]2N(OS(=O)(=O)O)C1=O (relative stereo) [Ex3, trans 8-(aminomethyl)-4,8-dihydro-2-(2-dimethylaminoethylcarbamoyl)-5-(sulphooxy)-4,7-methano-7H-pyrazolo[3,4-e][1,3] diazepin-6(5H)-one]	1 µg/mL (≈ 2.48 µM)
NC[C@@H]1c2nn(C(=O)N3CCCC3)cc2[C@H]2CN1C(=O)N2OS(=O)(=O)O (relative stereo) [Ex4, trans 8-(aminomethyl)-4,8-dihydro-2-(pyrrolidine-1-carbonyl)-5-(sulphooxy)-4,7-methano-7H-pyrazolo[3,4-e][1,3]diazepin-6(5H)-one]	8 µg/mL (≈ 20.7 µM)
NC[C@@H]1c2nn(C(=O)NCC(N)=O)cc2[C@H]2CN1C(=O)N2OS(=O)(=O)O (relative stereo) [Ex7, trans 8-(aminomethyl)-2-(carbamoylmethyl-carbamoyl)-4,8-dihydro-5-(sulphooxy)-4,7-methano-7H-pyrazolo[3,4-e][1,3]diazepin-6(5H)-one]	1 µg/mL (≈ 2.57 µM)
